This passage reports Ratio IC50 and IC50 results from ChEMBL document CHEMBL1221190, “Therapeutic intervention based on protein prenylation and associated modifications” (Nat Chem Biol, 2006).

Test [1] can be described thus: Selectivity ratio of IC50 for farnesyltransferase to IC50 for GGTase1.
Test [2] in a line: Inhibition of GGTase1.

`CSCCc1c(-c2cccnc2)nn(-c2ccc(Cl)c(Cl)c2)c1OCCCC(=O)N[C@@H](Cc1ccccc1)C(N)=O`: the Ratio IC50 in test [1] worked out at 250. Inhibition in test [2] was half-maximal at 8 nM (IC50).
